Assay: Concentration of active ingredient dissolved in 60% (w/w) aqueous SBECD after filtration, determined by HPLC
Assay type: physicochemical
Conditions: boiling water bath 1 hour, room temperature 24 hours, 0.2 micrometer filter
Experimental: 200 mg of coumarin were added to 4 g of 60% (w/w) aqueous SBECD, and the mixture was mixed at 34° C. for 48 hours, and then filtered through a 0.2 micrometer nylon filter to produce 44.3 mg/g coumarin solution, as determined by HPLC. 40 mg of cetylpiridinium chloride were added to the solution and mixed until completely dissolved, and the composition was filtered.
400 mg of ibuprofen were added to 4 g of 60% (w/w) aqueous SBECD, and the mixture was mixed at 34° C. for 48 hours, and then filtered through a 0.2 micrometer nylon filter to produce 78.1 mg/g ibuprofen solution, as determined by HPLC. 60 mg of triethanoloamine were added to the solution and mixed until completely dissolved, and the composition was filtered.
2 mg of paclitaxel were added to 4 g of 60% (w/w) aqueous SBECD, and the mixture was mixed at 34° C. for 48 hours, and then filtered through a 0.2 micrometer nylon filter to produce 0.4 mg/g paclitaxel solution, as determined by HPLC. 40 mg of heptakis(6-guanidino-6-deoxy)-beta-cyclodextrin were added to the solution and mixed until completely dissolved, and the composition was filtered.
200 mg of diindolylmethane were added to 4 g of 60% (w/w) aqueous SBECD, and the mixture was heated in boiling water bath for 1 hour, then kept at room temperature for 24 hours. The mixture was then filtered through a 0.2 micrometer nylon filter to produce 40.3 mg/g diindolylmethane solution, as determined by HPLC. 24 mg of octakis(6-guanidino-6-deoxy)-gamma-cyclodextrin were added to the solution and mixed until completely dissolved, and the composition was filtered.
10 mg of Semaxanib (3-((3,5-dimethyl-1H-pyrrol-2-yl)methylene)indolin-2-one) were added to 4 g of 60% (w/w) aqueous SBECD, and the mixture was heated in boiling water bath for 1 hour, then kept at room temperature for 24 hours. The mixture was then filtered through a 0.2 micrometer nylon filter to produce 1.3 mg/g semaxanib solution, as determined by HPLC. 80 mg of PI2080 (polyethyleneimine 2000 conjugated with PEG 8000) were added and mixed until completely dissolved, and the composition was filtered.
40 mg of xanthone (9H-xanthen-9-one) were added to 4 g of 60% (w/w) aqueous SBECD, and the mixture was heated in boiling water bath for 1 hour, then kept at room temperature for 24 hours. The mixture was filtered through a 0.2 micrometer nylon filter to produce 8.2 mg/g xanthone solution, as determined by HPLC. 120 mg of low molecular weight protamine were added and mixed until completely dissolved, and the composition was filtered.
100 mg of carvedilol were added to 4 g of 60% (w/w) aqueous SBECD, and the mixture was heated in boiling water bath for 1 hour, then kept at room temperature for 24 hours. The mixture was filtered through a 0.2 micrometer nylon filter to produce 22.6 mg/g carvedilol solution, as determined by HPLC. 120 mg of hexakis(6-amino-6-deoxy)-alpha-cyclodextrin were dissolved in 2 mL water, and the two solutions mixed until completely homogenous. The product solution was freeze-dried to form an amorphous solid.
10 mg of talidomid were added to 4 g of 60% (w/w) aqueous SBECD, and the mixture was mixed at 34° C. for 48 hours. The mixture was filtered through a 0.2 micrometer nylon filter to produce 1.7 mg/g talidomid solution, as determined by HPLC. 120 mg of heptakis(6-amino-6-deoxy)-beta-cyclodextrin were added and mixed until completely dissolved, and the composition was filtered.
2 mg of SN-38 (7-Ethyl-10-hydroxy-camptothecin) were added to 4 g of 60% (w/w) aqueous SBECD, and the mixture was heated in boiling water bath for 1 hour, then kept at room temperature for 24 hours. The mixture was filtered through a 0.2 micrometer nylon filter to produce 0.39 mg/g SN-38 solution, as determined by HPLC. A solution of 60 mg of heptakis(6-amino-6-deoxy)-beta-cyclodextrin in 2 mL water was added to the SN-38 solution, and mixed until the resulting solution was completely homogenous. The composition was filtered. […]

| Structure (SMILES) | concentration of active ingredient in filtered solution |
| --- | --- |
| COc1ccccc1OCCNCC(O)COc1cccc2[nH]c3ccccc3c12 (stereo not drawn) [carvedilol] | 22.6 mg/g |
| O=c1c2ccccc2oc2ccccc12 [xanthone, 9H-xanthen-9-one] | 8.2 mg/g |
| CCc1c2c(nc3ccc(O)cc13)-c1cc3c(c(=O)n1C2)COC(=O)[C@]3(O)CC [SN-38, 7-Ethyl-10-hydroxy-camptothecin] | 0.39 mg/g |
| CC(=O)[C@@]1(O)CC[C@H]2[C@@H]3C=C(C)C4=CC(=O)CC[C@]4(C)[C@H]3CC[C@@]21C [megesterol] | 4.3 mg/g |
| Cc1cc(C)c(C=C2C(=O)Nc3ccccc32)[nH]1 [semaxanib, 3-((3,5-dimethyl-1H-pyrrol-2-yl)methylene)indolin-2-one] | 1.3 mg/g |

Same assay, conditions: mixed at 34° C. for 48 hours, 0.2 micrometer filter

| Structure (SMILES) | concentration of active ingredient in filtered solution |
| --- | --- |
| CC(C)Cc1ccc(C(C)C(=O)O)cc1 (stereo not drawn) [ibuprofen] | 78.1 mg/g |
| O=C1CCC(N2C(=O)c3ccccc3C2=O)C(=O)N1 (stereo not drawn) [talidomid] | 1.7 mg/g |
| O=c1ccc2ccccc2o1 [coumarin] | 44.3 mg/g |
| CC(=O)O[C@H]1C(=O)[C@@]2(C)[C@H]([C@H](OC(=O)c3ccccc3)[C@]3(O)C[C@H](OC(=O)[C@H](O)[C@@H](NC(=O)c4ccccc4)c4ccccc4)C(C)=C1C3(C)C)[C@]1(OC(C)=O)CO[C@@H]1C[C@@H]2O [paclitaxel] | 0.4 mg/g |

Source: patent publication US20110207764A1, “CYCLOPOLYSACCHARIDE COMPOSITIONS” (priority 2010, published 2011)
